Measured values as given in US6713057B1, “Compositions and methods for modulating serum cholesterol” (The Johns Hopkins University, priority 1999, dated 2004).

Legend:
SREBP-1 [1] = test: Electrophoretic mobility shift assay, SREBP-1 binding to SRE probe; assay type: cell-based, human; details: for amount of probe bound (electrophoretically retarded) by mature SREBP-1: TNF-α 10 ng/ml, sphingomyelinase 100 mUnits, C2-ceramide 10 μM
Protocol: FIGS. 6A-6D show electrophoretic mobility shift assays. FIGS. 6A-D are explained in more detail as follows. Cells were maintained in sterol supplemented media. Nuclear pellets were prepared and assayed as described in materials and methods. Probe that has been bound by mature SREBP-1 is indicated as “Bound”. Unbound probe is indicated as “Free”. The kinetics (in minutes) of SREBP-1 binding to the probe in response to treatment with (FIG. 6A). TNF-α (10 ng/ml), (FIG. 6B) sphingomyelinase (100 mUnits) and (FIG. 6C) C2-ceramide ([…]). (FIG. 6D). The cells were treated with either TNF-α (10 ng/ml), sphingomyelinase (100 mUnits) or C2-ceramide (10 μM) for 15 minutes. Supershift assays were then performed with antibodies raised against the DNA binding domain of SREBP-1. The presence or absence of antibody is indicated by (+) and (−) respectively. Pre-immune IgG was used as a control.
Gel mobility shift assays were performed as follows. Each 20 μl reaction mixture contained 8-10 μg of nuclear protein plus a α-[^32P]-labeled 25-base pair oligonucleotide probe containing the SREBP-binding site (14) in binding buffer (10 mM Hepes, pH 7.5, 0.5 mM spermidine, 0.15 mM EDTA, 10 mM dithiothreitol, 0.35 mM sucrose). The reaction mixture was incubated at room temperature for 15 min and loaded directly onto a 6.5% polyacrylamide (49:0.6 acrylamide/bisacrylamide) gel in a buffer of 25 mM Tris borate (pH 8.0), 0.25 mM EDTA. In some experiments, antisera specific for SREBP or preimmune sera were added to reaction mixtures to determine the composition of protein-probe complexes. For these “supershift” assays, extracts were incubated with 1 μl of preimmune sera or an equal volume of anti-SREBP antisera at 4° C. for 30 min prior to addition of α-[^32P]-labeled probe. In all experiments, proteins were separated by electrophoresis at 200 V for 2 h at room temperature. Gels were dried and exposed to Kodak XAR film with intensifying screens. Assays were repeated with nuclear extracts obtained from three unique experiments and evaluated by phosphoimage analysis to ensure reproducibility of results.

SREBP-1 [2] = test: SREBP-1 maturation (Western immunoblot) in hepatocytes transfected with N-SMase plasmids or incubated with r-N-SMase; assay type: cell-based, human; details: C-2 ceramide positive control
Protocol: The present example was conducted to address whether the overexpression of N-SMase employing two separate N-SMase plasmid DNA(PHH-1, representing the entire nucleotide sequence in N-SMase cDNA and PHH-11, representing nucleotide sequence 862-1414) would increase the maturation of SREBP-1 and LDL receptor mRNA expression in a human hepatocyte cell line […]. Cells transfected with mock plasmid cDNA(PSV-SPOT) served as a control and cells incubated with C-2 ceramide previously shown to induce SREBP-1 maturation served as a positive control.
Briefly, human hepatocytes(1×10^4) were seeded in sterile 100 mm^2 in medium containing 10% dialyzed, heat inactivated fetal bovine serum without antibiotics. Twenty four hours later medium was replaced with 9 ml of fresh serum free medium. After incubation for 30 min at 37° C. 5-40 μg of the plasmid DNA in 1 ml of a CaCl2 solution (mixed with equal volume of 0.25-2.5 M CaCl2 solution in HEPES buffer and HEPES buffer pH 6.95). Following gentle mixing incubation of cells was continued for 5-24 hr at 37° C. The transfection reaction was terminated by removing the medium and washing the cells with serum free medium. Next, fresh serum supplemented medium was added and incubation was continued for an additional 24 hr and cells were harvested in appropriate buffer centrifuged and stored frozen until further analysis. […]

[3] = tested on: neutral sphingomyelinase (N-SMase); test: Neutral sphingomyelinase assay after TNF-α stimulation of HH-25 cells; assay type: cell-based, human; details: TNF-α 10 ng/ml
Protocol: FIG. 1 illustrates the effect of TNF-α on neutral sphingomyelinase activity and is explained in more detail as follows: Confluent cultures of HH-25 cells were washed once with PBS and incubated in serum free media for 30 minutes prior to the addition of TNF-α (10 ng/ml). At the indicated time, cells were harvested in PBS, pelleted and frozen. Cells were subsequently lysed as described in materials and methods. N-SMase assays were performed in duplicate as described. Error bars represent ±one standard deviation from the mean.
After stimulation with TNF-α for the indicated time intervals, the cells were washed once with 5 ml PBS and harvested. The pellet was stored frozen at −70° C. and resuspended in 0.5 ml buffer B (100 mM Tris HCl pH 7.4, 0.1% triton X-100, 1 mM EDTA and protease inhibitors). The cell suspension was sonicated 3 times (3 second bursts) using a probe sonicator and centrifuged at 500×g at 4° C. for 5 minutes. The supernatant was used as the enzyme source.
100 μg of protein was assayed for neutral sphingomyelinase activity in a buffer consisting of 5 mM Tris HCl pH 7.4, 0.1% triton X-100, 0.1 mg BSA, 5 mM MgCl2, and […] [^14C] sphingomyelin (12,000 dpm). The assay was incubated at 37° C. for 1.5 hours and terminated with the addition of 1 ml of 10% TCA. […]

LDL receptor mRNA = test: LDL receptor mRNA, Northern analysis in human hepatocytes; assay type: cell-based; details: TNF-α treatment
Protocol: Briefly, human hepatocytes(1×10^4) were seeded in sterile 100 mm^2 in medium containing 10% dialyzed, heat inactivated fetal bovine serum without antibiotics. Twenty four hours later medium was replaced with 9 ml of fresh serum free medium. After incubation for 30 min at 37° C. 5-40 μg of the plasmid DNA in 1 ml of a CaCl2 solution (mixed with equal volume of 0.25-2.5 M CaCl2 solution in HEPES buffer and HEPES buffer pH 6.95). Following gentle mixing incubation of cells was continued for 5-24 hr at 37° C. The transfection reaction was terminated by removing the medium and washing the cells with serum free medium. Next, fresh serum supplemented medium was added and incubation was continued for an additional 24 hr and cells were harvested in appropriate buffer centrifuged and stored frozen until further analysis. Cell pellets were homogenized and suitable aliquots subjected to Western immunoblot analysis as described below and in Examples 1-7 above. Total RNA was isolated from another batch of cells transfected as above and subjected to Northern analysis employing a ^32P labeled LDL receptor consensus sequence. The autoradiographs were developed and photographed.

Row | Compound | rate of accumulation of active, nuclear SREBP-1 compared with TNF-α or sphingomyelinase (SREBP-1 [1]) | amount of probe bound (electrophoretically retarded) by mature SREBP-1 (SREBP-1 [1]) | maturation of SREBP-1 compared to mock cDNA transfected cells (SREBP-1 [2]; PHH1 5,10,20,40 μg plasmid DNA/dish, PHH11 20 μg/dish) | maturation of SREBP-1 in hepatocytes incubated with protein or ceramide (SREBP-1 [2]; r-N-SMase 0.4, 0.8, 2, and 4 μg/ml) | return of N-SMase activity to control levels [3] [h] | maximal increase in neutral sphingomyelinase activity ([3]; 15 minutes after addition) [fold] | LDL receptor mRNA level (LDL receptor mRNA)
1 | CCCCCCCCCCCCC/C=C/[C@@H](O)[C@H](CO)NC(C)=O [C2-ceramide, N-acetylsphingosine, reference compound] | more rapid accumulation | increases | markedly increased | markedly increased |  |  | 
2 | TNF-α |  | increases with time |  |  | ≤ 1 | 2.5 | induces LDL receptor mRNA level
